{
  "source": "patent US7056654B2",
  "about": "“Screening assay for inhibitors of human cytochrome P-450” (SmithKline Beecham Corporation, priority 1999, dated 2006)",
  "target": "T1, CYP2C8 (Homo sapiens, UniProt P10632)",
  "T1 sequence (P10632 1-490)": "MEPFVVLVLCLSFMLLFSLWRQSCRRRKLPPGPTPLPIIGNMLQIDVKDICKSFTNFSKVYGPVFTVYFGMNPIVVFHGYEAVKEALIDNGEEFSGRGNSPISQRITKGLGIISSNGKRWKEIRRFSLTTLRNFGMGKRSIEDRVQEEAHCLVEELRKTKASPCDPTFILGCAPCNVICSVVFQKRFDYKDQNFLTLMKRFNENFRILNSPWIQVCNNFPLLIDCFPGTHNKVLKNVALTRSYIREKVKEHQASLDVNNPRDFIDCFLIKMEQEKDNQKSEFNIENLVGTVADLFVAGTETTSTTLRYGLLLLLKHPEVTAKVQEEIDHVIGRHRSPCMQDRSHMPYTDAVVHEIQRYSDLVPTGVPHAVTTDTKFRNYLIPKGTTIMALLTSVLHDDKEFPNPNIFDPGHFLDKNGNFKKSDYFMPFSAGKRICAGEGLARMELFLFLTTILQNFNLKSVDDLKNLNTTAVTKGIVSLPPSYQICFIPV",
  "conditions": "pH 7.4",
  "description": "Assay Methodology for CYP2C8\n• 400 μM diethoxyfluorescein, (i.e. 0.155 mg/mL in acetonitrile)—store at approx. −20° C. in the dark • 2% (w/v) NaHCO3—store at approx. 4° C. • 50 mM potassium phosphate buffer, pH 7.4\nFreshly prepared cofactor solution:—approx. the following per mL of 2% (w/v) NaHCO3 • 1.7 mg NADP, monosodium salt • 7.8 mg glucose-6-phosphate, monosodium salt • 6 Units glucose-6-phosphate dehydrogenase, Type VII from Bakers Yeast Method: • 1) Pre-warm the plate reader oven to 37° C. and pre-warm the lamp for at least 10 minutes. • 2) Mix 2.5 μL of 400 µM diethoxyfluorescein, 5 μL (50 μg) CYP2C8 microsomal protein and 212.5 μL buffer per incubate (giving 4 µM diethoxyfluorescein and 200 μg/mL protein final concentration). • 3) To each well of a 96-well plate add 220 µL of incubation mix and 5 μL of test compound solution (or 5 μL of appropriate solvent for control wells—methanol, DMSO or acetonitrile may be used). • 4) Pre-incubate the multi-well plate in the plate reader at 37° C. for 5 minutes. Pre-warm the cofactor solution at 37° C. for 5 minutes. • 5) Add 25 μL cofactor solution to each well and scan with an excitation wavelength of 485 nm and an emission wavelength of 530 nm with a gain of 80. Scan for 10 cycles at 1 minute intervals.",
  "data": [
    {"compound": "O=c1c(O)c(-c2ccc(O)c(O)c2)oc2cc(O)cc(O)c12", "note": "[quercitin]", "values": [
      {"measurement": "IC50", "result": 3000, "unit": "nM"}
    ]}
  ]
}
